The source of these data is patent US20230115945A1, “AMINOPYRIMIDINE COMPOUNDS” (TYRA BIOSCIENCES, INC., priority 2019, published 2023).

The target in one test is T1, FGFR3 (Homo sapiens, UniProt P22607).
T1 construct: made in house; host or cells: E. coli host derived from BL21, infected with T7 phage
The test can be described thus: Kinase binding assay (Kd), FGFR3. The conditions noted are these: 11-point 3-fold dilution, qPCR readout. In short, it runs like this:
(§1)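 Kinase levels in bead eluates were read by qPCR after test compounds competed with an immobilized affinity ligand for T7 phage-expressed kinase. Binding ran 1 h at room temperature, and Kd values were fitted from 11-point dose–response curves with Hill slope set to −1.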
For orientation: Real-time PCR tracks product formation cycle by cycle.

Test [1] relates to RT112/84 cells (Bladder Cancer, FGFR3-TACC3 fusion). Kind of test: Cancer cell line cell viability assay, RT112/84. The settings on record: Homo sapiens, 72 hours, Cell Titer-Glo 2.0, read-out: Cancer Cell Viability Assays RT112/84 (IC50 nM). Format: cell-based. The text has this: (§2) [table] To detect the change of intracellular ATP by Cell Titer-Glo® and to evaluate the inhibitory effect of the compounds on cancer cell lines by determining the in vitro IC50 value of the compounds. Cell Titer-Glo® 2.0 Luminescent cell viability assay reagent was purchased from Promega (Madison, Wis.). RT112/84, SNU-16, and KG-1 cell lines were purchased from American Type Culture Collection (Manassas, Va.). UM-UC-14 cell line was purchased from Sigma (St. Louis, Mo.). RT112/84, UM-UC-14, SNU-16, and KG-1 cells were cultured in RPMI1640 media supplemented with 10% fetal bovine serum. Cultures were maintained at 37° C. in a humidified atmosphere of 5% CO2 and 95% air. Cell Viability Assay Procedure: Cells were plated in 96-well clear bottom/white plates (Corning #3903) at 10,000 cells/well in 100 μl of media, incubated overnight. The next day, test compound DMSO stock solutions were made at 10 mM and 2 μM final concentration. Compounds were then added to cells in a 9-dose, […] dilution series starting at 30 μM with an HP 300e Digital Dispenser (each dose was applied in triplicate). DMSO was backfilled to each well up to 301 nL total volume of test compound+DMSO, and a total of 301 nL DMSO was added to a control/no test compound well in triplicate. The cells in cell culture plates were incubated with the compounds at 37° C. and 5% CO2 for 72 hours. Then 50 μl of Cell Titer Glo 2.0 reagent was added to each well of the cell culture plates. The contents were covered from light and mixed on an orbital shaker at room temperature for 10 min. Luminescence was recorded by a Synergy H1 Microplate Reader (Biotek, Winooski, Vt.). Cells were assessed as a percentage of DMSO only treated control cells. Curves were plotted and IC50 values were calculated using the GraphPad Prism 8 program based on a sigmoidal dose-response equation (4 parameter).

Test [2] deals with SNU-16 cells (Gastric Carcinoma, FGFR2 amplification). The test can be described thus: Cancer cell line cell viability assay, SNU-16. Format: cell-based. The settings on record: Homo sapiens, 72 hours, Cell Titer-Glo 2.0, read-out: Cancer Cell Viability Assays SNU-16 (IC50 nM).
From the text: as §2
For orientation: In ATP-based viability assays light output follows the ATP content of the culture.

The target of the next test is T2, FGFR3 (V555M) (Homo sapiens, UniProt P22607, V555M).
T2 construct: made in house; host or cells: E. coli host derived from BL21, infected with T7 phage
The test can be described thus: Kinase binding assay (Kd), FGFR3 (V555M). The settings on record: 11-point 3-fold dilution, qPCR readout. The method in brief: as §1

For another test, the target named is T3, FGFR1 (Homo sapiens, UniProt P11362).
T3 construct: made in house; host or cells: E. coli host derived from BL21, infected with T7 phage
The test can be described thus: Kinase binding assay (Kd), FGFR1. The conditions noted are these: 11-point 3-fold dilution, qPCR readout. In short, it runs like this:
as §1

Another test concerns the target T4, FGFR4 (Homo sapiens, UniProt P22455).
T4 construct: made in house; host or cells: E. coli host derived from BL21, infected with T7 phage
Kind of test: Kinase binding assay (Kd), FGFR4. The settings on record: 11-point 3-fold dilution, qPCR readout. The method in brief: as §1

A further test concerns the target T5, FGFR2 (Homo sapiens, UniProt P21802).
T5 construct: made in house; host or cells: E. coli host derived from BL21, infected with T7 phage
Kind of test: Kinase binding assay (Kd), FGFR2. The settings on record: 11-point 3-fold dilution, qPCR readout. The method in brief:
as §1

T1 sequence (P22607 23-806): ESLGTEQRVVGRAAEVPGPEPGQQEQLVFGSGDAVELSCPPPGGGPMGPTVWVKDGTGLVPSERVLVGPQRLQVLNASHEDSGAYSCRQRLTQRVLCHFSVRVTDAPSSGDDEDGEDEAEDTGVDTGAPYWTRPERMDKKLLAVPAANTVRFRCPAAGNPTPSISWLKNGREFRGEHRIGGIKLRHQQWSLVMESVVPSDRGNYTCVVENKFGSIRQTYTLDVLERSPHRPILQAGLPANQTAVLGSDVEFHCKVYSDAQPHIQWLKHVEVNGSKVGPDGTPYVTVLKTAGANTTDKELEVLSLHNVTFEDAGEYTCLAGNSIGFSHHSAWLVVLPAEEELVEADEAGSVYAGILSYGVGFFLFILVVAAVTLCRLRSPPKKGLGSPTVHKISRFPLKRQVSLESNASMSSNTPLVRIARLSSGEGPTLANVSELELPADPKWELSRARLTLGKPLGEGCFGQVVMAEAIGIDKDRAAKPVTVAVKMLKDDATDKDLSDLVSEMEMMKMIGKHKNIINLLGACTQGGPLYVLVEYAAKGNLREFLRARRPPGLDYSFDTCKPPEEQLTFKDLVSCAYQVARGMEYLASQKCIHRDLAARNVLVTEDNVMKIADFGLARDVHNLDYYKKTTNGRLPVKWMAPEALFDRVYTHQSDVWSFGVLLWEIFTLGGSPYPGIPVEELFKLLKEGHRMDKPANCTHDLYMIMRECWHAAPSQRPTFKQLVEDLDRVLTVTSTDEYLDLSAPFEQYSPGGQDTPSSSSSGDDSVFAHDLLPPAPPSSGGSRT
T5 sequence (P21802 22-821): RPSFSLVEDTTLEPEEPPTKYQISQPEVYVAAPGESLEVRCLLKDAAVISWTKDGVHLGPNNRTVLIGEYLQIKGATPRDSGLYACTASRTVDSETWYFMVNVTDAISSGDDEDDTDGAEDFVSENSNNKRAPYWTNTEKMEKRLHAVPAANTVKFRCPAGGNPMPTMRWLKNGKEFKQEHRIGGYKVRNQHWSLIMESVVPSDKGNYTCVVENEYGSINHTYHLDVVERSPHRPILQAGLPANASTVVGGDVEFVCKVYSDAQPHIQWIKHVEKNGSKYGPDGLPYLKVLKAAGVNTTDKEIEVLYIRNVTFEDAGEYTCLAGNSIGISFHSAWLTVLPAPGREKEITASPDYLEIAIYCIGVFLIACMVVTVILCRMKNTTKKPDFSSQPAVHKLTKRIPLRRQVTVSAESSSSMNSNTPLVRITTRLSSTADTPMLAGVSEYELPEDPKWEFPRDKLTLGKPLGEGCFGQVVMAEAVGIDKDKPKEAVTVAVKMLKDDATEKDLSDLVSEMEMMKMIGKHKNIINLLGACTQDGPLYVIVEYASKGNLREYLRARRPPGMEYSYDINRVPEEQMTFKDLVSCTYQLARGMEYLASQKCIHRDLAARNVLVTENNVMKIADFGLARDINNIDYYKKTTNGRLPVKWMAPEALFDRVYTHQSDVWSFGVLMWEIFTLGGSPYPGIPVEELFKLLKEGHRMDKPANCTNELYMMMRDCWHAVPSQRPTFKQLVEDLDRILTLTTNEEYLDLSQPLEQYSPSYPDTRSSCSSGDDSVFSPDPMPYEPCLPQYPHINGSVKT
T2 sequence (P22607 23-806 V555M): as the sequence (P22607 23-806) above, with V533M counted along it
T3 sequence (P11362 22-822): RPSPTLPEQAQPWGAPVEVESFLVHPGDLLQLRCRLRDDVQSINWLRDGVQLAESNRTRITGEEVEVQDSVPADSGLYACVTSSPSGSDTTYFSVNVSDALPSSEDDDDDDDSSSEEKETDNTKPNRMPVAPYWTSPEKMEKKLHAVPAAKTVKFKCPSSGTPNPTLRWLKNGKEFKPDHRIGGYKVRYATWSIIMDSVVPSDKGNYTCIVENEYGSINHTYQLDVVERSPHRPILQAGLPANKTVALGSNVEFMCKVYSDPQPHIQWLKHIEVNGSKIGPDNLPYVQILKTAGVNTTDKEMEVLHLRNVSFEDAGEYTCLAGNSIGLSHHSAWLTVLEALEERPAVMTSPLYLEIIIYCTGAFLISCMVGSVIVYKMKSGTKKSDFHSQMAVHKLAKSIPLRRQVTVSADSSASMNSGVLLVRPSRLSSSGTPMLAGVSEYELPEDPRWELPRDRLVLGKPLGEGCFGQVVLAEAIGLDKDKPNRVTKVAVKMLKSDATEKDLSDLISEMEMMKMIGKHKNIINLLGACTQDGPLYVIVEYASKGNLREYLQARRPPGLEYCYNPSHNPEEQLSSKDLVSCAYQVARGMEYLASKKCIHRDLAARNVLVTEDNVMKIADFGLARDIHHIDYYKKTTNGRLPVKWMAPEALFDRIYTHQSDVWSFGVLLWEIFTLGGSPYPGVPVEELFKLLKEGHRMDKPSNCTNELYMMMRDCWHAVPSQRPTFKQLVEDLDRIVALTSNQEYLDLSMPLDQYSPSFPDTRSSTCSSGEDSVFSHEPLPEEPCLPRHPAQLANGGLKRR
T4 sequence (P22455 22-802): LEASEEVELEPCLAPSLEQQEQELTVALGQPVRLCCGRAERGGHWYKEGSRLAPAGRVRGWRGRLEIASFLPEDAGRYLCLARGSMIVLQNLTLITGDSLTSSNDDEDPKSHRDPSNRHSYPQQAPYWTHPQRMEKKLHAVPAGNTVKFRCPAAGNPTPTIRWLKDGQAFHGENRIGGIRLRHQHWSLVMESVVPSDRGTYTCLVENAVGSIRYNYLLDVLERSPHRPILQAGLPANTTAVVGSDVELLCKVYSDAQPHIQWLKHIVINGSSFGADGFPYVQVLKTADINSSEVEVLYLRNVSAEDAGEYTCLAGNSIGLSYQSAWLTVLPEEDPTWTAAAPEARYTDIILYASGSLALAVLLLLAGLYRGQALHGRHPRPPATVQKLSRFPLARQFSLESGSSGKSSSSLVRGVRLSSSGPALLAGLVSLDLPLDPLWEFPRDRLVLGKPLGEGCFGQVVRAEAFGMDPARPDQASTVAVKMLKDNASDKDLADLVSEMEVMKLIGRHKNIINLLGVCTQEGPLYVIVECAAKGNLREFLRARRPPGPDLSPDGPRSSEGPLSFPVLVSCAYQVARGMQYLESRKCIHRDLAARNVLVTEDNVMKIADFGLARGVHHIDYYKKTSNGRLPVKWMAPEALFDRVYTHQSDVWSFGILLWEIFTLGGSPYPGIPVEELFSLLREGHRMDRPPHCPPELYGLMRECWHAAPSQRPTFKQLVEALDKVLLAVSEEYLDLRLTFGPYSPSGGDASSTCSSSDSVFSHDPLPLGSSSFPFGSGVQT

Broadly, the Kd is a measure of binding affinity in units of concentration. High values mean lower affinity, low ones higher affinity. Take `C=CC(=O)Nc1ccc2c(ccn2-c2nc(Nc3ccc(S(C)(=N)=O)cc3)ncc2C)c1` (stereo not shown) [Example 74, N-[1-[5-Methyl-2-[4-(methylsulfonimidoyl)anilino]-pyrimidin-4-yl]indol-5-yl]prop-2-enamide]: the Kd on FGFR3 was 41 nM; on FGFR3 (V555M), 20 nM; on FGFR1 it was 140 nM; at FGFR4 it was 560 nM; on FGFR2 it was 77 nM. Besides, the values for the IC50 in test [1] and in test [2] were 713 nM and 9 nM, respectively.
In the case of `N=S1(=O)CCN(c2ccc(Nc3ncc(Cl)c(-c4c[nH]c5ccccc45)n3)cc2)CC1` [Example 53, 5-Chloro-N-[4-(1-imino-1-oxo-1,4-thiazinan-4-yl)phenyl]-4-(1H-indol-3-yl)pyrimidin-2-amine], the dissociation constant Kd on FGFR3 came out at 11 nM; at FGFR3 (V555M), 1 nM; on FGFR1, 5 nM; on FGFR4 it was 74 nM; on FGFR2 it was 3 nM. In addition, the IC50 in test [1] came to 22 nM; in test [2] it was 31 nM.
`Cc1cc(Nc2ncc(C)c(-c3c[nH]c4ccccc34)n2)ccc1N=S(C)(C)=O` [Example 24, N-[4-[[dimethyl(oxo)-λ^6-sulfanylidene]amino]-3-methyl-phenyl]-4-(1H-indol-3-yl)-5-methyl-pyrimidin-2-amine]: the Kd at FGFR3 is 10 nM; on FGFR3 (V555M), 1 nM; on FGFR1, 4 nM; on FGFR4, 87 nM; at FGFR2, 7 nM. For the same compound, the IC50 was found to be 33 nM in test [1] and 60 nM in test [2].
As to `CS(=N)(=O)c1ccc(Nc2ncc(Cl)c(-c3c[nH]c4ccccc34)n2)cc1` (stereo not shown) [Example 52, 5-Chloro-4-(1H-indol-3-yl)-N-[4-(methylsulfonimidoyl)-phenyl]pyrimidin-2-amine], the Kd at FGFR3 is 24 nM; at FGFR3 (V555M), 6 nM; at FGFR1, 27 nM; on FGFR4, 390 nM; on FGFR2, 9 nM. Further, the figures for the IC50 in test [1] and in test [2] were 76 nM and 83 nM, respectively.
As for `CC(C)Oc1cc(N=S(C)(C)=O)ccc1Nc1ncc(Cl)c(-c2c[nH]c3ccccc23)n1` [Example 3, 5-chloro-N-[4-[[dimethyl(oxo)-λ^6-sulfanylidene]amino]-2-isopropoxy-phenyl]-4-(1H-indol-3-yl)pyrimidin-2-amine], the Kd at FGFR3 worked out at 4700 nM; at FGFR1 it was 4500 nM; at FGFR4 it was 290 nM; at FGFR2 it was 11000 nM. In addition, the IC50 was found to be 100 nM in test [1] and 73 nM in test [2].
For the compound `CCN1CCS(=O)(=Nc2ccc(Nc3ncc(Cl)c(-c4c[nH]c5ccccc45)n3)c(OC)c2)CC1` [Example 39, 5-Chloro-4-(1H-indol-3-yl)-N-[2-methoxy-4-[(4-ethyl-1-oxo-1,4-thiazinan-1-ylidene)-amino]phenyl]pyrimidin-2-amine], the Kd is 57 nM on FGFR3; 6 nM on FGFR3 (V555M); 58 nM at FGFR1; 66 nM on FGFR4; 170 nM on FGFR2.
On to `COc1cc(S(C)(=N)=O)ccc1Nc1ncc(Cl)c(-c2c[nH]c3ccccc23)n1` (stereo not shown) [Example 36, 5-Chloro-4-(1H-indol-3-yl)-N-[2-methoxy-4-(methylsulfonimidoyl)-phenyl]pyrimidin-2-amine], for which the Kd on FGFR3 is 89 nM; on FGFR3 (V555M), 4 nM; on FGFR1, 72 nM; at FGFR4, 57 nM; on FGFR2, 67 nM.
In the same order, the values of `CCC(=O)Nc1cccc2c1ccn2-c1nc(Nc2ccc(N3CCS(=N)(=O)CC3)cc2)ncc1Cl` [Example 83, N-[1-[5-Chloro-2-[4-(1-imino-1-oxo-1,4-thiazinan-4-yl)anilino]pyrimidin-4-yl]indol-4-yl]propanamide] are 59 nM, 3 nM, 86 nM, 1100 nM and 79 nM.
